From patent publication US7413536B1, “Substrates and screening methods for transport proteins” (XenoPort, Inc., priority 1999, dated 2008)

Assays:
[1] = biological target: T1, rat intestinal bile acid transporter (Rattus norvegicus, UniProt Q62633); test: Substrate activity for the intestinal bile acid transporter; type: cell-based
T1 sequence (Q62633 1-348): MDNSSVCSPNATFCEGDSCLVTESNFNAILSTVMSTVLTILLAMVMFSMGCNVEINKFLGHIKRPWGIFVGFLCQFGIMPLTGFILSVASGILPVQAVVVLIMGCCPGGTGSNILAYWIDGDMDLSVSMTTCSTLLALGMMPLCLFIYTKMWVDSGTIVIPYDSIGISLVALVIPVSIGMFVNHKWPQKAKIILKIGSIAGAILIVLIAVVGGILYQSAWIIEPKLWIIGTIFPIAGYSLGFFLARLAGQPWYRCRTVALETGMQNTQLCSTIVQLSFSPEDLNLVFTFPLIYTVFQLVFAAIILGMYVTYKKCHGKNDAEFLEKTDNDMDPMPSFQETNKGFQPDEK

[2] = Oral absorption in rat; type: in vivo

| Compound | substrate for the rat intestinal bile acid transporter [1] | hydrolysis upon oral absorption (uncharacterized amidase activity) releasing parent drug [2] | oral absorption ([2]; rat) |
| --- | --- | --- | --- |
| COc1ccc2cc(C(C)C(=O)NCCCCC(NC(=O)CCC(C)C3CCC4C5C(O)CC6CC(O)CCC6(C)C5CC(O)C34C)C(=O)O)ccc2c1 (stereo not shown) [Cholyl-Lysine-(ε-Naproxen)-OH] | retains activity | hydrolyzed |  |
| cholyl-lys-(ε-NBD)-OH [cholyl-L-Lys-(ε-NBD)-OH] | substrate |  | effectively absorbed orally |
